The values that follow come from patent US20140056834A1, “COSMETIC COMPOSITION COMPRISING CHRYSOPHANOL AS ACTIVE INGREDIENT FOR SKIN WHITENING” (PUKYONG NATIONAL UNIVERSITY INDUSTRY-UNIVERSITY C, priority 2012, published 2014).

The test system of series [1] is B16F1 cells. Kind of series: Determination of cytotoxicity by MTT method. The class given is cell-based, mouse. The following applies: 10 and 50 μM, 24 h incubation. As to the method:
The mouse melanoma B16F1 cells were acquired from the American Type Culture Collection (ATCC, Manassas, Va.) and were cultured in Dulbecco's modification of eagle's medium (DMEM, GIBCO, New York, USA) containing 100 μg/ml penicillin-streptomycin, […] fetal bovine serum (FBS) and maintained at 37° C., 5% CO2. Cytotoxicity levels of the isolated chrysophanol compound from Microsporum sp. on B16F1 cells were measured using MTT (3-(4,5-dimethyl[…])-2,5-diphenyltetrazolium bromide) method. Briefly, B16F1 cells were cultured in 96-well plates at a density of 5×10^3 cells/well. After 24 h, cells were treated with different concentrations (10, 50, 100 μM) of chrysophanol compound. After the next 24 h of incubation, cells were washed two times with PBS and 100 μl of MTT solution (1 mg/ml) was added to each well. After next 4 h of incubation, MTT solution in each well was removed and then 100 μl of dimethyl-sulfoxide (DMSO) were added to solubilize the formazan salt. The optical density was measured at 540 nm by using UV microplate reader (Tecan Austria GmbH, Groedig, Austria). Relative cell viability was calculated compared to the non-treated blank group.

The subject of series [2] is tyrosinase protein in mouse melanoma B16F1 cells. Kind of series: Tyrosinase protein expression by western blot analysis. The class given is cell-based. Particulars: α-MSH. As to the method: For the western blot analysis, B16F1 cells were treated with different concentrations of chrysophanol compound, added with α-MSH, incubated for a predetermined time, and then the cells were lysed with RIPA buffer (Sigma-Aldrich Corp., St. Louis, USA) and centrifuged. After the centrifugation, the same amount (15 μg) of protein in cell lysate supernatants were analyzed on 10% SDS-PAGE and proteins were blotted on an immuno-blot nitro-cellulose membrane and blocked with 5% BSA in TBS containing 0.1% Tween 20 (TBS-T) for at least 1 h and hybridized with the primary monoclonal antibodies (Santa Cruz Biotechnology Inc., CA, USA). All the primary monoclonal antibodies were diluted with TBS-T (1:1000). The protein bindings were detected using the secondary antibody conjugated to horseradish peroxidase and enhanced using chemiluminiscence ECL assay kit (Amersham Pharmacia Biosciences, England, UK) according to the manufacturer's instructions and imaged on a LAS-3000® Luminescent image analyzer (Fujifilm, Life Science, Tokyo, Japan). T

Series [3] has as its system B16F1 cells. Description: Melanin content in α-MSH-stimulated B16F1 cells. It counts as cell-based, mouse. The following applies: α-MSH 100 nM, 72 h. As to the method: The melanin content was determined in accordance a procedure described previously (Hosoi et al., 1985) with slight modifications.
Briefly, B16F1 cells were seeded at a density of 2×10^4 cells per well in 24-well culture plates and then incubated for 24 h. Then, cells were treated with various concentrations ([…]) of chrysophanol. After 1 h, α-MSH (100 nM) was added and incubated for 72 h. Then, cells were washed twice with PBS and dissolved in 1 N NaOH by 30 min of boiling at 60° C. The cell lysates were centrifuged for 5 min at 5000 g and absorbance of the supernatant was measured at 405 nm.

Series [4] concerns mushroom tyrosinase. Kind of series: Mushroom tyrosinase assay (tyrosinase inhibitory activity). Particulars: L-tyrosine substrate, different concentrations, 30 min at 37° C. The class given is biochemical. As to the method: The inhibitory effect on tyrosinase was measured using the spectrophotometric method, based on the hydroxylation of […] in mushroom tyrosinase assay.
A total of 10 μl of each chrysophanol with different concentrations and 20 μl of mushroom tyrosinase (1000 units/ml) in 50 mM phosphate buffer (pH 6.5) were added to 170 μl of an assay mixture containing a ratio of 10:10:9 of 1 mM L-tyrosine solution, 50 mM phosphate buffer (pH 6.5), and distilled water in a 96-well microplate. After 30 min of incubation at 37° C., the absorbance of the mixture was determined at 490 nm using a microplate reader (Tecan Austria GmbH, Austria).

Take `Cc1cc(O)c2c(c1)C(=O)c1cccc(O)c1C2=O` [chrysophanol]: the “cytotoxicity (relative cell viability, MTT)” value in series [1] was “no cytotoxicity”. Further, the tyrosinase protein expression entry in series [2] (20 μM) is on record as “significantly inhibited expression of tyrosinase protein”; in series [2] (different concentrations) it was “dose-dependent inhibition of tyrosinase protein expression”. In series [3] (B16F1 cells, 50 μM), the “melanin content compared with positive control kojic acid” value is listed as “almost the same as that of kojic acid”. Besides, the melanin content entry in series [3] (B16F1 cells, 5, 10, 50 μm chrysophanol) is “decrease in melanin content in B16F1 cells by the treatment of chrysphanol in a dose-dependent manner”. Besides, the tyrosinase inhibitory activity result in series [4] is given as “tyrosinase inhibitory activity was observed by chrysophanol in a dose-dependent manner”.
